Experimental data published in US11591355B2 (Peloton Therapeutics, Inc., priority 2017, dated 2023).

Columns and labels:
[1] = molecular target: T1, Human CD73 (Homo sapiens, UniProt P21589); test: CD73 Enzyme Assay; format: biochemical; settings: 0.25 nM hCD73, 25 μM AMP, kinetic read at 360 nm; read-out: CD73 Enzyme Assay IC50
T1 construct: purchased R&D Systems; host or cells: CHO cells
T1 sequence (P21589 27-549): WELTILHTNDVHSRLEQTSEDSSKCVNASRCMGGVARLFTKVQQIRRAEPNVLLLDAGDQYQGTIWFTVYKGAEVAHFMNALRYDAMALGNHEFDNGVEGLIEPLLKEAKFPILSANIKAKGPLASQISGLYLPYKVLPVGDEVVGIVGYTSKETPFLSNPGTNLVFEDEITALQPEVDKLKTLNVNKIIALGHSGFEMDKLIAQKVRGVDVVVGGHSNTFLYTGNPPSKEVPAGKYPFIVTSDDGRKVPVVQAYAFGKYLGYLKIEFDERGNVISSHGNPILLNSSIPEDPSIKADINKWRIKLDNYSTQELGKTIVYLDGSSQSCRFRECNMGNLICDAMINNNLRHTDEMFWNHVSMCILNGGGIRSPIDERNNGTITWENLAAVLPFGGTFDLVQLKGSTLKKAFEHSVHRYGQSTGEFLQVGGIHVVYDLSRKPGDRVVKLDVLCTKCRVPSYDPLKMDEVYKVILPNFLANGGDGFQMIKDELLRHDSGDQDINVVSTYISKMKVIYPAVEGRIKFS

[2] = molecular target: T2, CD73 on U138 human neuroglioma cells (Homo sapiens, UniProt P21589); test: CD73 Cell-Based Assay; settings: U138 cells, AMP substrate, 2 hours at 37° C., inorganic phosphate by malachite green
T2 construct: U138 cells were obtained from ATCC and cultured in DMEM with 10% FBS; host or cells: U138 human neuroglioma cells
T2 sequence (P21589 27-549): T1 sequence (P21589 27-549)
How it was run: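 Whole U138 cells washed free of phosphate were incubated with 200 μM AMP (mixture concentration before equal-volume addition) plus compound in HEPES-buffered saline, pH 7.4, for 2 h at 37 °C, 5% CO2. Adenosine-forming activity read as inorganic phosphate released into supernatant by malachite green.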

For `N#Cc1nc(N2CC3CCCC3C2)c2ccn([C@@H]3O[C@H](COCP(=O)(O)O)[C@@H](O)[C@H]3O)c2n1` (stereo partly drawn) [Compound 201, [(2R,3S,4R,5R)-5-[4-(3,3a,4,5,6,6a-hexa-hydro-1H-cyclopenta-[c]pyrrol-2-yl)-2-cyano-pyrrolo[2,3-d]-pyrimidin-7-yl]-3,4-dihydroxy-tetrahydro-furan-2-yl]methoxy-methylphosphonic acid], the IC50 [1] was < 10 nM and the IC50 [2] was < 10 nM.
For `COC(=O)OCOP(=O)(O)COC[C@H]1O[C@@H](n2ccc3c(NC4CCCC4)nc(Cl)nc32)[C@H](O)[C@@H]1O` [Compound 202, [(2R,3S,4R,5R)-5-[2-chloro-4-(cyclopentyl-amino)pyrrolo[2,3-d]-pyrimidin-7-yl]-3,4-dihydroxy-tetrahydro-furan-2-yl]methoxy-methyl-(methoxy-carbonyloxymethoxy)-phosphinic acid], the IC50 [1] was 10 to 100 nM and the IC50 [2] was 10 to 100 nM.
Work on `CC(C)(C)C(=O)OCOP(=O)(COC[C@H]1O[C@@H](n2ccc3c(N4CC5CCCC5C4)nc(Cl)nc32)[C@H](O)[C@@H]1O)OCOC(=O)C(C)(C)C` (stereo partly drawn) [Compound 203, [[(2R,3S,4R,5R)-5-[4-(3,3a,4,5,6,6a-hexa-hydro-1H-cyclopenta-[c]pyrrol-2-yl)-2-chloro-pyrrolo[2,3-d]-pyrimidin-7-yl]-3,4-dihydroxy-tetrahydro-furan-2-yl]methoxy-methyl-(2,2-dimethyl-propanoyloxymethoxy)-phosphoryl]oxymethyl 2,2-dimethylpropanoate] yielded an IC50 [1] of 100 to 1000 nM and an IC50 [2] of 10 to 100 nM.
In the case of `C[C@H](Nc1nc(C#N)nc2c1ccn2[C@@H]1O[C@H](COCP(=O)(O)O)[C@@H](O)[C@H]1O)c1ccc(C2CC2)cc1` [Compound 204, [(2R,3S,4R,5R)-5-[2-cyano-4-[[(1S)-1-(4-cyclopropylphenyl)-ethyl]amino]pyrrolo-[2,3-d]pyrimidin-7-yl]-3,4-dihydroxy-tetra-hydrofuran-2-yl]-methoxymethylphos-phonic acid], the IC50 [1] is reported as < 10 nM and the IC50 [2] is reported as < 10 nM.
For `C[C@@H](Nc1nc(C#N)nc2c1ccn2[C@@H]1O[C@H](COCP(=O)(O)O)[C@@H](O)[C@H]1O)c1ccc(C2CC2)cc1` [Compound 205, [(2R,3S,4R,5R)-5-[2-cyano-4-[[(1R)-1-(4-cyclopropylphenyl)-ethyl]amino]pyrrolo-[2,3-d]pyrimidin-7-yl]-3,4-dihydroxy-tetra-hydrofuran-2-yl]-methoxymethylphos-phonic acid], the IC50 [1] was < 10 nM and the IC50 [2] was < 10 nM.
For `O=P(O)(O)COC[C@H]1O[C@@H](n2ccc3c(Oc4ccccc4)nc(Cl)nc32)[C@H](O)[C@@H]1O` [Compound 206, [(2R,3S,4R,5R)-5-(2-chloro-4-phenoxy-pyrrolo[2,3-d]-pyrimidin-7-yl)-3,4-dihydroxy-tetrahydro-furan-2-yl]methoxy-methylphosphonic acid], the IC50 [1] was 10 to 100 nM and the IC50 [2] was > 1000 nM.
`O=P(O)(O)COC[C@H]1O[C@@H](n2ccc3c(Sc4ccccc4)nc(Cl)nc32)[C@H](O)[C@@H]1O` [Compound 207, [(2R,3S,4R,5R)-5-(2-chloro-4-phenyl-sulfanyl-pyrrolo[2,3-d]-pyrimidin-7-yl)-3,4-dihydroxy-tetrahydro-furan-2-yl]methoxy-methylphosphonic acid] gave an IC50 [1] of 100 to 1000 nM and an IC50 [2] of 100 to 1000 nM.
`N#Cc1cn([C@@H]2O[C@H](COCP(=O)(O)O)[C@@H](O)[C@H]2O)c2nc(Cl)nc(NC3CCCC3)c12` [Compound 209, [(2R,3S,4R,5R)-5-[2-chloro-5-cyano-4-(cyclopentylamino)-pyrrolo[2,3-d]-pyrimidin-7-yl]-3,4-dihydroxy-tetrahydro-furan-2-yl]methoxy-methylphosphonic acid] was tested, and the IC50 [1] was 100 to 1000 nM and the IC50 [2] was 100 to 1000 nM.
`O=P(O)(O)COC[C@H]1O[C@@H](n2ccc3c(Nc4ccccc4)nc(Cl)nc32)[C@H](O)[C@@H]1O` [Compound 211, [(2R,3S,4R,5R)-5-(4-anilino-2-chloro-pyrrolo[2,3-d]-pyrimidin-7-yl)-3,4-dihydroxy-tetrahydro-furan-2-yl]methoxy-methylphosphonic acid] showed an IC50 [1] of 100 to 1000 nM and an IC50 [2] of 100 to 1000 nM.
For `O=P(O)(O)COC[C@H]1O[C@@H](n2ccc3c(-c4ccccc4)nc(Cl)nc32)[C@H](O)[C@@H]1O` [Compound 212, [(2R,3S,4R,5R)-5-(2-chloro-4-phenyl-pyrrolo[2,3-d]-pyrimidin-7-yl)-3,4-dihydroxy-tetrahydro-furan-2-yl]methoxy-methylphosphonic acid], the IC50 [1] was 10 to 100 nM and the IC50 [2] was 10 to 100 nM.
For `O=P(O)(O)COC[C@H]1O[C@@H](n2ccc3c(C4CCCC4)nc(Cl)nc32)[C@H](O)[C@@H]1O` [Compound 213, [(2R,3S,4R,5R)-5-(2-chloro-4-cyclopentyl-pyrrolo[2,3-d]-pyrimidin-7-yl)-3,4-dihydroxy-tetrahydro-furan-2-yl]methoxy-methylphosphonic acid], the IC50 [1] was 10 to 100 nM and the IC50 [2] was 10 to 100 nM.
Compound `O=P(O)(O)COC[C@H]1O[C@@H](n2ccc3c(N[C@@H](CO)c4ccccc4)nc(Cl)nc32)[C@H](O)[C@@H]1O` [Compound 218, [(2R,3S,4R,5R)-5-[2-chloro-4-[[(1R)-2-hydroxy-1-phenyl-ethyl]amino]pyrrolo-[2,3-d]pyrimidin-7-yl]-3,4-dihydroxy-tetra-hydrofuran-2-yl]-methoxymethylphos-phonic acid] has an IC50 [1] of 10 to 100 nM and an IC50 [2] of 10 to 100 nM.
Work on `O=P(O)(O)COC[C@H]1O[C@@H](n2ccc3c(OC4CCCC4)nc(Cl)nc32)[C@H](O)[C@@H]1O` [Compound 219, [(2R,3S,4R,5R)-5-[2-chloro-4-(cyclo-pentoxy)pyrrolo[2,3-d]-pyrimidin-7-yl]-3,4-dihydroxy-tetrahydro-furan-2-yl]methoxy-methylphosphonic acid] yielded an IC50 [1] of 10 to 100 nM and an IC50 [2] of 10 to 100 nM.
`CC(C)C(=O)COP(=O)(O)COC[C@H]1O[C@@H](n2ccc3c(NC4CCCC4)nc(Cl)nc32)[C@H](O)[C@@H]1O` [Compound 222, [(2R,3S,4R,5R)-5-[2-chloro-4-(cyclopentyl-amino)pyrrolo[2,3-d]-pyrimidin-7-yl]-3,4-dihydroxy-tetrahydro-furan-2-yl]methoxy-methyl-(3-methyl-2-oxo-butoxy)phosphinic acid] gave an IC50 [1] of 100 to 1000 nM and an IC50 [2] of 100 to 1000 nM.
For `O=P(O)(O)CP(=O)(O)OC[C@H]1O[C@@H](n2ccc3c(NC4CCCC4)nc(Cl)nc32)[C@H](O)[C@@H]1O` [Compound 229], the IC50 [1] was < 10 nM and the IC50 [2] was < 10 nM.
`O=P(O)(O)COC[C@H]1O[C@@H](n2ccc3c(NC4CCCC4)nc(I)nc32)[C@H](O)[C@@H]1O` [Compound 230, [(2R,3S,4R,5R)-5-[4-(cyclopentylamino)-2-iodo-pyrrolo[2,3-d]-pyrimidin-7-yl]-3,4-dihydroxy-tetrahydro-furan-2-yl]methoxy-methylphosphonic acid] was tested, and the IC50 [1] was < 10 nM and the IC50 [2] was < 10 nM.
With `O=P(O)(O)COC[C@H]1O[C@@H](n2ccc3c(NC4CCCC4)nc(C(F)(F)F)nc32)[C@H](O)[C@@H]1O` [Compound 231, [(2R,3S,4R,5R)-5-[4-(cyclopentylamino)-2-(trifluoromethyl)-pyrrolo[2,3-d]-pyrimidin-7-yl]-3,4-dihydroxy-tetrahydro-furan-2-yl]methoxy-methylphosphonic acid] the IC50 [1] was 10 to 100 nM and the IC50 [2] was 10 to 100 nM.
